{"source": "patent US7605227B2", "about": "“Melanoma antigen peptide analogues” (MannKind Corporation, priority 2005, dated 2009)", "note": "“Also recorded” adds a separate entry of the source. Square brackets hold non-standard residues; d marks the D form. Ends that are not written are not given here. Peptide text beside a SMILES is read from it. Phe(4-F) = N[C@@H](Cc1ccc(F)cc1)C(=O)O"}
{"test_system": "T cell lines against a natural (non-mutated) epitope (SSX-241-49)", "experiment": "Cross-reactivity and functional avidity: IFN-gamma from T cell lines against natural SSX-2 41-49 epitope;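 note: peptide analogs tested ex vivo with competent APCs, IFN-gamma in supernatant measured by ELISA, readouts include minimal triggering concentration, peak effect and concentration at peak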", "format": "cell-based, HHD transgenic mice", "settings": "IFN-gamma from T cell line raised against native SSX-2 41-49; native = 1, lower = more active"}
{"compound": "CC[C@H](C)[C@H](NC(=O)[C@H](CCCCN)NC(=O)[C@H](CCC(=O)O)NC(=O)[C@H](CO)NC(=O)[C@@H](NC(=O)[C@@H](N)Cc1c[nH]c2ccccc12)[C@@H](C)CC)C(=O)N[C@@H](Cc1ccccc1)C(=O)N[C@@H](Cc1ccc(O)cc1)C(=O)N[C@H](C(=O)O)C(C)C", "note": "[SSX2 41-49 (K41W, A42I)]", "Cross-reactivity and fct avidity (native to analogs)*": 0.1}
{"compound": "CC[C@H](C)[C@H](NC(=O)[C@H](CCCCN)NC(=O)[C@H](CCC(=O)O)NC(=O)[C@H](CO)NC(=O)[C@@H](NC(=O)[C@@H](N)Cc1ccccc1)C(C)C)C(=O)N[C@@H](Cc1ccccc1)C(=O)N[C@@H](Cc1ccc(O)cc1)C(=O)N(C)[C@H](C(=O)O)C(C)C", "note": "[SSX2 41-49 (K41F, A42V, V49MeVal)]", "Cross-reactivity and fct avidity (native to analogs)*": 10}
{"compound": "CCCC[C@H](NC(=O)[C@@H](N)CCCCN)C(=O)N[C@@H](CO)C(=O)N[C@@H](CCC(=O)O)C(=O)N[C@@H](CCCCN)C(=O)N[C@H](C(=O)N[C@@H](Cc1ccccc1)C(=O)N[C@@H](Cc1ccc(O)cc1)C(=O)N[C@H](C(=O)O)C(C)C)[C@@H](C)CC", "note": "[SSX2 41-49 (A42(Nle)), KNleSEKIFYV]", "Cross-reactivity and fct avidity (native to analogs)*": 0.1}
{"compound": "FVSEKLFTA", "Cross-reactivity and fct avidity (native to analogs)*": ">10"}
{"compound": "CC[C@H](C)[C@H](NC(=O)[C@H](CCCCN)NC(=O)[C@H](CCC(=O)O)NC(=O)[C@H](CO)NC(=O)[C@@H](NC(=O)[C@H](N)CCCCN)C(C)C)C(=O)N[C@@H](Cc1ccccc1)C(=O)N[C@@H](Cc1ccc(O)cc1)C(=O)N[C@H](C(=O)O)C(C)C", "note": "[SSX2 41-49 (K41(D-Lys), A42V)]", "Cross-reactivity and fct avidity (native to analogs)*": 10}
{"compound": "KVSEKIFYI [SSX2 41-49 (A42V, V491)]", "Cross-reactivity and fct avidity (native to analogs)*": 0.3}
{"compound": "CC[C@H](C)[C@H](NC(=O)[C@H](CCCCN)NC(=O)[C@H](CCC(=O)O)NC(=O)[C@H](CO)NC(=O)C(C)(C)NC(=O)[C@@H](N)CCCCN)C(=O)N[C@@H](Cc1ccccc1)C(=O)N[C@@H](Cc1ccc(O)cc1)C(=O)N[C@H](C(=O)O)C(C)C", "note": "[SSX2 41-49 (A42(Aib)), KAibSEKIFYV]", "Cross-reactivity and fct avidity (native to analogs)*": 3}
{"compound": "CC[C@H](C)[C@H](NC(=O)[C@H](CCCCN)NC(=O)[C@H](CCC(=O)O)NC(=O)[C@H](CO)NC(=O)[C@H](C)NC(=O)[C@@H](N)CCCCN)C(=O)N[C@@H](Cc1ccccc1)C(=O)N[C@@H](Cc1ccc(O)cc1)C(=O)N[C@H](C(=O)O)C(C)C", "note": "[SSX2 41-49, reference compound]", "Cross-reactivity and fct avidity (native to analogs)*": 1}
{"compound": "CC[C@H](C)[C@H](NC(=O)[C@H](CCCCN)NC(=O)[C@H](CO)NC(=O)[C@H](CO)NC(=O)[C@@H](NC(=O)[C@@H](N)Cc1ccccc1)C(C)C)C(=O)N[C@@H](Cc1ccccc1)C(=O)N[C@@H](Cc1ccc(O)cc1)C(=O)N[C@H](C(=O)O)C(C)C", "note": "[SSX2 41-49 (K41F, A42V, E44S)]", "Cross-reactivity and fct avidity (native to analogs)*": ">10"}
{"compound": "K(D-Val)SEKIFYV [SSX2 41-49 (A42(D-Val))]", "Cross-reactivity and fct avidity (native to analogs)*": 3}
{"compound": "KASEKIFYV [SSX2 41-49-NH2]", "Cross-reactivity and fct avidity (native to analogs)*": ">10"}
{"compound": "KNal-1SEKIFYV [SSX2 41-49 (A42(Nal-1))]", "Cross-reactivity and fct avidity (native to analogs)*": ">10"}
{"compound": "FVSEKIFY(Aib) [SSX2 41-49 (K41F, A42V, V49Aib)]", "Cross-reactivity and fct avidity (native to analogs)*": ">10"}
{"compound": "CC[C@H](NC(=O)[C@@H](N)CCCCN)C(=O)N[C@@H](CO)C(=O)N[C@@H](CCC(=O)O)C(=O)N[C@@H](CCCCN)C(=O)N[C@H](C(=O)N[C@@H](Cc1ccccc1)C(=O)N[C@@H](Cc1ccc(O)cc1)C(=O)N[C@H](C(=O)O)C(C)C)[C@@H](C)CC", "note": "[SSX2 41-49 (A42(Abu)), KAbuSEKIFYV]", "Cross-reactivity and fct avidity (native to analogs)*": 0.3}
{"compound": "FVSEKVFYV (T cell peptide epitope analog) [SSX2 41-49 (K41F, A42V, I46V)]", "Cross-reactivity and fct avidity (native to analogs)*": 1}
{"compound": "CC[C@H](C)[C@H](NC(=O)[C@H](CCCCN)NC(=O)[C@H](CCC(=O)O)NC(=O)[C@H](CO)NC(=O)[C@H](C)NC(=O)[C@@H](N)Cc1ccc(F)cc1)C(=O)N[C@@H](Cc1ccccc1)C(=O)N[C@@H](Cc1ccc(O)cc1)C(=O)N[C@H](C(=O)O)C(C)C", "note": "[SSX2 41-49 (K41(Phe-4F))] (H-[Phe(4-F)]ASEKIFYV-OH)", "Cross-reactivity and fct avidity (native to analogs)*": 3}
{"compound": "CC[C@H](C)[C@H](NC(=O)[C@H](CCCCN)NC(=O)[C@H](CCC(=O)O)NC(=O)[C@H](CO)NC(=O)[C@@H](NC(=O)[C@@H](N)Cc1ccccc1)C(C)C)C(=O)N[C@@H](Cc1ccccc1)C(=O)N[C@@H](Cc1ccc(O)cc1)C(=O)N[C@@H](CC(C)C)C(=O)O", "note": "[SSX2 41-49 (K41F, A42V, V49L)]", "Cross-reactivity and fct avidity (native to analogs)*": ">10"}
{"compound": "CC[C@H](C)[C@H](NC(=O)[C@H](CCCCN)NC(=O)[C@H](CCC(=O)O)NC(=O)[C@H](CO)NC(=O)[C@H](Cc1ccc2ccccc2c1)NC(=O)[C@@H](N)CCCCN)C(=O)N[C@@H](Cc1ccccc1)C(=O)N[C@@H](Cc1ccc(O)cc1)C(=O)N[C@H](C(=O)O)C(C)C", "note": "[SSX2 41-49 (A42(Nal-2)), KNal-2SEKIFYV]", "Cross-reactivity and fct avidity (native to analogs)*": 3}
{"compound": "FVSEKMFYV [SSX2 41-49 (K41F, A42V, I46M)]", "Cross-reactivity and fct avidity (native to analogs)*": ">10"}
{"compound": "CC[C@H](C)[C@H](NC(=O)[C@H](CCCCN)NC(=O)[C@H](CCC(=O)O)NC(=O)[C@H](CO)NC(=O)[C@H](CCSC)NC(=O)[C@@H](N)Cc1ccccc1)C(=O)N[C@@H](Cc1ccccc1)C(=O)N[C@@H](Cc1ccc(O)cc1)C(=O)N[C@H](C(=O)O)C(C)C", "note": "[SSX2 41-49 (K41F, A42M)]", "Cross-reactivity and fct avidity (native to analogs)*": 3}
{"compound": "CCC[C@H](NC(=O)[C@@H](N)CCCCN)C(=O)N[C@@H](CO)C(=O)N[C@@H](CCC(=O)O)C(=O)N[C@@H](CCCCN)C(=O)N[C@H](C(=O)N[C@@H](Cc1ccccc1)C(=O)N[C@@H](Cc1ccc(O)cc1)C(=O)N[C@H](C(=O)O)C(C)C)[C@@H](C)CC", "note": "[SSX2 41-49 (A42(Nva)), KNvaSEKIFYV]", "Cross-reactivity and fct avidity (native to analogs)*": 0.1}
{"compound": "CC[C@H](C)[C@H](NC(=O)[C@H](CCCCN)NC(=O)[C@H](CCC(=O)O)NC(=O)[C@H](CO)NC(=O)[C@@H](NC(=O)[C@@H](N)Cc1ccc(O)cc1)[C@@H](C)CC)C(=O)N[C@@H](Cc1ccccc1)C(=O)N[C@@H](Cc1ccc(O)cc1)C(=O)N[C@H](C(=O)O)C(C)C", "note": "[SSX2 41-49 (K41Y, A42I)]", "Cross-reactivity and fct avidity (native to analogs)*": 1}
{"compound": "KLSEKIFYV [SSX2 41-49-NH2 (A42L)]", "Cross-reactivity and fct avidity (native to analogs)*": 3}
{"compound": "CC[C@H](C)[C@H](NC(=O)[C@H](CCCCN)NC(=O)[C@H](CCC(=O)O)NC(=O)[C@H](CO)NC(=O)[C@@H](NC(=O)[C@@H](N)Cc1ccccc1)C(C)C)C(=O)N[C@@H](Cc1ccccc1)C(=O)N[C@@H](Cc1ccc(O)cc1)C(=O)N[C@@H](C)C(=O)O", "note": "[SSX2 41-49 (K41F, A42V, V49A)]", "Cross-reactivity and fct avidity (native to analogs)*": 1}
{"compound": "CC[C@H](C)[C@H](NC(=O)[C@H](CCCCN)NC(=O)[C@H](CCC(=O)O)NC(=O)[C@H](CO)NC(=O)[C@H](CC(C)C)NC(=O)[C@@H](N)Cc1ccccc1)C(=O)N[C@@H](Cc1ccccc1)C(=O)N[C@@H](Cc1ccc(O)cc1)C(=O)N[C@H](C(=O)O)C(C)C", "note": "[SSX2 41-49 (K41F, A42L)]", "Cross-reactivity and fct avidity (native to analogs)*": 0.3}
{"compound": "CC[C@H](C)[C@H](NC(=O)[C@H](CCCCN)NC(=O)[C@H](CCC(=O)O)NC(=O)[C@H](CO)NC(=O)[C@H](CC(C)C)NC(=O)[C@H](N)CCCCN)C(=O)N[C@@H](Cc1ccccc1)C(=O)N[C@@H](Cc1ccc(O)cc1)C(=O)N[C@H](C(=O)O)C(C)C", "note": "[SSX2 41-49 (K41(D-Lys), A42L)]", "Cross-reactivity and fct avidity (native to analogs)*": 10}
{"compound": "CCCC[C@H](NC(=O)[C@H](Cc1ccc(O)cc1)NC(=O)[C@H](Cc1ccccc1)NC(=O)[C@@H](NC(=O)[C@H](CCCCN)NC(=O)[C@H](CCC(=O)O)NC(=O)[C@H](CO)NC(=O)[C@@H](NC(=O)[C@@H](N)Cc1ccccc1)C(C)C)[C@@H](C)CC)C(=O)O", "note": "[SSX2 41-49 (K41F, A42V, V49Nle)]", "Cross-reactivity and fct avidity (native to analogs)*": ">10"}
{"compound": "CC[C@H](NC(=O)[C@H](Cc1ccc(O)cc1)NC(=O)[C@H](Cc1ccccc1)NC(=O)[C@@H](NC(=O)[C@H](CCCCN)NC(=O)[C@H](CCC(=O)O)NC(=O)[C@H](CO)NC(=O)[C@@H](NC(=O)[C@@H](N)Cc1ccccc1)C(C)C)[C@@H](C)CC)C(=O)O", "note": "[SSX2 41-49 (K41F, A42V, V49Abu)]", "Cross-reactivity and fct avidity (native to analogs)*": 1}
{"compound": "CC[C@H](C)[C@H](NC(=O)[C@H](CCCCN)NC(=O)[C@H](CCC(=O)O)NC(=O)[C@H](CO)NC(=O)[C@H](C)NC(=O)[C@@H](N)Cc1c[nH]c2ccccc12)C(=O)N[C@@H](Cc1ccccc1)C(=O)N[C@@H](Cc1ccc(O)cc1)C(=O)N[C@H](C(=O)O)C(C)C", "note": "[SSX2 41-49 (K41W)]", "Cross-reactivity and fct avidity (native to analogs)*": ">10"}
{"compound": "FVSNKIFYV [SSX2 41-49 (K41F, A42V, E44N)]", "Cross-reactivity and fct avidity (native to analogs)*": ">10"}
{"compound": "KVSEKIFYV [SSX2 41-49-NH2 (A42V)]", "Cross-reactivity and fct avidity (native to analogs)*": 10}
{"compound": "K(D-Ala)SEKIFYV [SSX2 41-49 (A42(D-Ala))]", "Cross-reactivity and fct avidity (native to analogs)*": 10}
{"compound": "CCC[C@H](NC(=O)[C@H](Cc1ccc(O)cc1)NC(=O)[C@H](Cc1ccccc1)NC(=O)[C@@H](NC(=O)[C@H](CCCCN)NC(=O)[C@H](CCC(=O)O)NC(=O)[C@H](CO)NC(=O)[C@@H](NC(=O)[C@@H](N)Cc1ccccc1)C(C)C)[C@@H](C)CC)C(=O)O", "note": "[SSX2 41-49 (K41F, A42V, V49Nva)]", "Cross-reactivity and fct avidity (native to analogs)*": 0.1}
{"compound": "CC[C@H](C)[C@H](NC(=O)[C@H](CCCCN)NC(=O)[C@@H](NC(=O)[C@H](CO)NC(=O)[C@@H](NC(=O)[C@@H](N)Cc1ccccc1)C(C)C)[C@@H](C)O)C(=O)N[C@@H](Cc1ccccc1)C(=O)N[C@@H](Cc1ccc(O)cc1)C(=O)N[C@H](C(=O)O)C(C)C", "note": "[SSX2 41-49 (K41F, A42V, E44T)]", "Cross-reactivity and fct avidity (native to analogs)*": ">10"}
{"compound": "CC[C@H](C)[C@H](NC(=O)[C@H](CCCCN)NC(=O)[C@H](CCC(=O)O)NC(=O)[C@H](CO)NC(=O)[C@H](CC(C)C)NC(=O)[C@@H](N)CCCCN)C(=O)N[C@@H](Cc1ccccc1)C(=O)N[C@@H](Cc1ccc(O)cc1)C(=O)N[C@H](C(=O)O)C(C)C", "note": "[SSX2 41-49 (A42L)]", "Cross-reactivity and fct avidity (native to analogs)*": 0.03}
{"test_system": "T cell lines against a natural (non-mutated) epitope (SSX-241-49)", "experiment": "Cross-reactivity and functional avidity: IFN-gamma from T cell lines against natural SSX-2 41-49 epitope;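 note: peptide analogs tested ex vivo with competent APCs, IFN-gamma in supernatant measured by ELISA, readouts include minimal triggering concentration, peak effect and concentration at peak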", "format": "cell-based, HHD transgenic mice", "settings": "SSX-2 41-49 analogs, wild-type specific T cells"}
{"compound": "KASEKIFYVY [SSX-241-50, wild-type SSX-2 41-50 decamer peptide, reference compound]", "cross-reactivity / IFN-gamma inducing activity relative to wild-type, in words": "significantly less active; also recorded: no immunological activity"}
